Experimental data from US10441589B2, “Combinations and methods comprising a capsid assembly inhibitor” (Novira Therapeutics, Inc., priority 2016, dated 2019).
Structures can show the parent of a compound that is named as a salt. Where two headings read alike, the source gives them in different places. Marks after values point to notes of the source that are not given here.

Key:
[1] = test system: rtA181V HBV variant; test: Antiviral activity in HepG2 cells transiently transfected with rtA181V HBV variant; assay type: cell-based, HBV genotype B; settings: for Fold Change rtA181V: EC50 fold change relative to mean wild-type EC50, mean ± SD
Procedure: (§1) In this example, the antiviral activity of Compound 1 was determined using HepG2 liver cells transiently transfected with plasmids expression replication-competent HBV DNA and quantitation of intracellular encapsidated HBV DNA. The antiviral activity of Compound 1 was measured against nucleoside inhibitor sensitive, wild-type HBV, as well as against HBV variants resistant to nucleoside analogs that contain defined amino acid changes in the coding sequence of the reverse transcriptase protein: rtL180M/M204V, rtN236T, rtA181V, rtA181V/N236T, and rtL180M/M204V/N236T.
(§2) Plasmid DNA constructs containing a 1.1×HBV genome under the control of a CMV promoter were previously cloned from serum of an HBV infected patient prior to LMV treatment (Genbank AY220698, Fudan University, China; SEQ ID NO:1, see Table 1) and after development of resistance to LMV (Genbank AY220697, Fudan University, China; SEQ ID NO:2, see Table 1) (Zhang J M et al. 2005. J Med Virol 77: 203-208). Genotyping analysis confirmed that both isolates belong to genotype B HBV, and that the isolate collected after the development of resistance to LMV contained two amino acid changes within the polymerase gene (L180M/M204V). The HBV variant was named rtL180M/M204V to indicate that the amino acid changes were present in the reverse transcriptase (rt) protein. Two additional plasmids were generated by introducing coding sequence changes resulting in the amino acid changes N236T and A181V in the HBV polymerase, respectively. […]
(§3) HepG2 cells were seeded in collagen coated 96-well plates (BIOCOAT™; Fisher Scientific, Catalog#354407) at a density of 20,000 cells/well and allowed to attach overnight at 37° C. and 5% CO2. […] Cells were incubated with compounds for three days, after which intracellular HBV DNA was extracted from cells and levels of secreted Gaussian luciferase was determined from the medium using the Gaussia Flash Luciferase assay kit (THERMO SCIENTIFIC™, Fisher Scientific, Catalog#16158). […]

[2] = test system: rtN236T HBV variant; test: Antiviral activity in HepG2 cells transiently transfected with rtN236T HBV variant; assay type: cell-based, HBV genotype B; settings: EC50 fold change relative to mean wild-type EC50; mean ± SD
Procedure: as §1
as §2, with “respectively. The nucleotide changes were introduced into the wild type genotype B plasmid by site directed mutagenesis according to manufacturer recommendation (Agilent Technologies; Santa Clara, Calif.; Catalog#200519) using the following primers and their corresponding reverse complement sequence (nucleotide change underlined): 5′-CTTTGGGTATACATTTAACCCCTCACAAAAC-3′ (rtN236T; SEQ ID NO:3), 5′-GTCCGTTTCTCTTGGTTCAGTTTACTAGTG-3′ (rtA181V; SEQ ID NO:4). In two additional plasmid constructs, the rtN236T amino acid change was also added into the rtA181V and rtL180M/M204V plasmids to generate the rtA181V/N236T double mutant and rtL180M/M204V/N236T triple mutant HBV variants, respectively.” for “respectively.”
as §3

[3] = test system: rtA181V/N236T HBV variant; test: Antiviral activity in HepG2 cells transiently transfected with rtA181V/N236T HBV variant; assay type: cell-based, HBV genotype B; settings: EC50 fold change relative to mean wild-type EC50; mean ± SD
Procedure: In this example, the antiviral activity of Compound 1 was determined using HepG2 liver cells transiently transfected with plasmids expression replication-competent HBV DNA and quantitation of intracellular encapsidated HBV DNA. The antiviral activity of Compound 1 was measured against nucleoside inhibitor sensitive, wild-type HBV, as well as against HBV variants resistant to nucleoside analogs that contain defined amino acid changes in the coding sequence of the reverse transcriptase protein: rtL180M/M204V, rtN236T, rtA181V, rtA181V/N236T, and rtL180M/M204V/N236T. […]
as §3

[4] = test system: rtL180M/M204V HBV variant; test: Antiviral activity in HepG2 cells transiently transfected with rtL180M/M204V HBV variant; assay type: cell-based, HBV genotype B; settings: for Fold Change rtL180M/M204V: EC50 fold change relative to mean wild-type EC50, mean ± SD
Procedure: as §1
as §2, with “respectively. The nucleotide changes were introduced into the wild type genotype B plasmid by site directed mutagenesis according to manufacturer recommendation (Agilent Technologies; Santa Clara, Calif.; Catalog#200519) using the following primers and their corresponding reverse complement sequence (nucleotide change underlined): 5′-CTTTGGGTATACATTTAACCCCTCACAAAAC-3′ (rtN236T; SEQ ID NO:3), 5′-GTCCGTTTCTCTTGGTTCAGTTTACTAGTG-3′ (rtA181V; SEQ ID NO:4). In two additional plasmid constructs, the rtN236T amino acid change was also added into the rtA181V and rtL180M/M204V plasmids to generate the rtA181V/N236T double mutant and rtL180M/M204V/N236T triple mutant HBV variants, respectively.” for “respectively.”
as §3

[5] = test system: wild type HBV; test: Antiviral activity in HepG2 cells transiently transfected with wild-type HBV, intracellular encapsidated HBV DNA; assay type: cell-based, HBV genotype B; settings: Hepatitis B virus, 72 h, HepG2 transient transfection, 3 days, mean ± SD, at least three studies, read-out: WT EC50
Procedure: as §1
as §2, with “respectively. The nucleotide changes were introduced into the wild type genotype B plasmid by site directed mutagenesis according to manufacturer recommendation (Agilent Technologies; Santa Clara, Calif.; Catalog#200519) using the following primers and their corresponding reverse complement sequence (nucleotide change underlined): 5′-CTTTGGGTATACATTTAACCCCTCACAAAAC-3′ (rtN236T; SEQ ID NO:3), 5′-GTCCGTTTCTCTTGGTTCAGTTTACTAGTG-3′ (rtA181V; SEQ ID NO:4). In two additional plasmid constructs, the rtN236T amino acid change was also added into the rtA181V and rtL180M/M204V plasmids to generate the rtA181V/N236T double mutant and rtL180M/M204V/N236T triple mutant HBV variants, respectively.” for “respectively.”
as §3

[6] = test system: rtL180M/M204V/N236T HBV variant; test: Antiviral activity in HepG2 cells transiently transfected with rtL180M/M204V/N236T HBV variant; assay type: cell-based, HBV genotype B; settings: EC50 fold change relative to mean wild-type EC50; mean ± SD
Procedure: as §1, §2, §3

[7] = Cell viability of primary human hepatocytes (CellTiter-Glo, intracellular ATP); assay type: cell-based; settings: human, cryopreserved primary human hepatocytes
Procedure: (§4) Cryopreserved primary human hepatocytes from individual donors (primary hepatocyte IDs: HuM4038, HuM4055A, and HuM4059) were purchased from Triangle Research Labs (TRL; Research Triangle Park, N.C.). Cells were thawed using hepatocyte thawing medium (TRL, Catalog#MCHT50) according to manufacturers' recommendations. After centrifugation, cells were resuspended in supplemented hepatocyte plating medium (TRL, Catalog#MP250). Cells were plated in collagen Type I coated 96-well plates (Corning; Corning, N.Y.; Catalog#356407) at a density of 40,000 cells per well and maintained in humidified incubators at 37° C. and 5% CO2 overnight prior to addition of test compounds.
(§5) For each donor, three 96-well plates were set up to evaluate the effect of increasing concentrations of Compound 1 either alone or in combination with nucleoside analogs on hepatocyte cell viability. On each plate, cells were incubated with Compound 1 alone as duplicates, or Compound 1 in the presence of LMV, TFV, or ETV as triplicates. The effects of nucleoside analogs alone on hepatocyte cell viability were also determined in triplicates for each donor. Compound 1 was half-log serially diluted in DMSO (Sigma, Catalog #D2650) and added to primary human hepatocytes either alone or in combination with LMV (30 and 300 μM), TFV (30 μM), or ETV (30 μM). Single and combined drugs were added to primary human hepatocytes at a final DMSO (Sigma D2650) concentration of 0.5% across all concentrations. Cells were incubated with compounds for three days, after which medium was removed and fresh medium containing compounds was added and incubated for another three days. As a no compound control, primary human hepatocytes were treated with 0.5% DMSO, and these values were then used to define the 0% inhibition level. Background signal was determined as the mean value from wells containing only culture medium. Cell viability was monitored by using CellTiter-Glo cell viability reagent according to the manufacturer protocol (Promega; Madison, Wis.; G7573). Chemiluminescence signal proportional to the amount of cellular ATP was measured by using the Victor X4 plate reader (Perkin Elmer; Waltham, Mass.). The mean background signal from the medium only wells was subtracted from all other samples, and percent inhibition was calculated using equation E1 (as in Example 1): % inhibition=(DMSOave−Xi)/DMSOave×100% (E1):
(§6) where DMSOave is the mean signal calculated from the wells that were treated with 0.5% DMSO control (0% inhibition control) and X, is the signal measured from the individual wells. CC50 values were determined from the % inhibition data obtained at different compound concentrations by non-linear fitting using Graphpad Prism software and equation E3, in cases were % inhibition values exceeded 50% at the highest concentration tested. Y=Ymin+(Ymax−Yin)/(1+10^(LogCC50−X)×HillSlope) (E3):
(§7) where Y represents percent inhibition values and X represents the logarithm of compound concentrations.

[8] = test system: HBV DNA replication in HepG2.2.15 cells; test: 6-day HBV antiviral assay in HepG2.2.15 cells, qPCR of HBV DNA in supernatant, MacSynergy II; assay type: cell-based
Procedure: The anti-HBV activity of combinations of Compound 2 and Compound 3 with the nucleos(t)ide analogues ETV or TFV was assessed in a 6-day HBV antiviral assay using qPCR for the detection of HBV DNA in the cell culture supernatant as a read-out. The combination effect was analyzed using Mac Synergy II software. The anti-HBV activity of ETV and TFV when tested as single agents in HepG2.2.15 cells as well (Table 14).
During the antiviral testing, HepG2.2.15 cells were cultured in RPMI1640 medium and the FBS was reduced to 2%. Cells were plated at a density of 50.000 cells per well into a 96-well plate.
One day after seeding of the HepG2.2.15 cells, the supernatant was removed and 200 μL medium with test compounds, diluted in a checkerboard fashion, was added to the cells. […] HBV DNA was detected by quantitative real time PCR (qPCR). HBV DNA was quantified by a real-time PCR assay using a LightCycler480 Probes Master kit (Roche) with primers 5′-[sequence]-3′ (sense) and 5′-[sequence]-3′ (antisense, SEQ ID NO: 7). […]
The percentage inhibition values obtained for each combination of compound concentration was calculated as the average of 3 to 5 replicate plates of the same combination per experiment. To robustly identify outliers, the distance from the average of the other 4 replicates was calculated for every data point. […]

[9] = test system: primary human hepatocytes; test: Cell viability of primary human hepatocytes (CellTiter-Glo, intracellular ATP); assay type: cell-based; settings: 6 days; for cell viability at single concentrations: 30 or 300 μM LMV, 30 μM TFV, 30 μM ETV, three donors
Procedure: as §4, §5, §6, §7

[10] = donor HuM4038, first HuM4038 column of Table 3, 6 days, read-out: HuM4038 CC50
[11] = donor HuM4038, second HuM4038 column of Table 3, 6 days, read-out: HuM4038 CC50
[12] = donor HuM4055A, 6 days, read-out: HuM4055A CC50
[13] = donor HuM4059, 6 days, read-out: HuM4059 CC50

| SMILES | Fold Change rtA181V [1] | Fold Change rtN236T [2] | Fold Change rtA181V/N236T [3] | Fold Change rtL180M/M204V [4] | EC50 [5] | Fold Change rtL180M/M204V/N236T [6] | CC50 at 6 days [7, 10] | CC50 at 6 days [7, 11] | CC50 at 6 days [7, 12] | CC50 at 6 days [7, 13] | cell viability at single concentrations [9] | also measured |
| --- | --- | --- | --- | --- | --- | --- | --- | --- | --- | --- | --- | --- |
| O=C(Nc1cc(F)c(F)c(F)c1)c1ccc(F)c(S(=O)(=O)N2CCC(O)CC2)c1 [Compound 1, 4-fluoro-3-((4-hydroxypiperidin-1-yl)sulfonyl)-N-(3,4,5,-trifluorophenyl)benzamide] | 0.82 ± 0.19^ns | 0.85 ± 0.40^ns | 0.85 ± 0.26^ns | 1.3 ± 0.6^ns | 0.31 ± 0.1 µM | 1.4 ± 0.5^ns | 16 µM | 26 µM | 19 µM | 82 µM | – | CC50 at 6 days ([7]; Table 4, alone, donor HuM4038, read-out: Cmpd (I) CC50): 26 µM; CC50 at 6 days ([7]; Table 4, alone, donor HuM4055A, read-out: Cmpd (I) CC50): 19 µM; CC50 at 6 days ([7]; Table 4, alone, donor HuM4059, read-out: Cmpd (I) CC50): 83 µM; CC50 at 6 days ([7]; Table 5, alone, donor HuM4038, read-out: Cmpd (I) CC50): 16 µM; CC50 at 6 days ([7]; Table 5, alone, donor HuM4055A, read-out: Cmpd (I) CC50): 19 µM; CC50 at 6 days ([7]; Table 5, alone, donor HuM4059, read-out: Cmpd (I) CC50): 83 µM; CC50 at 6 days ([7]; Table 6, alone, donor HuM4038, read-out: Cmpd (I) CC50): 16 µM; CC50 at 6 days ([7]; Table 6, alone, donor HuM4055A, read-out: Cmpd (I) CC50): 19 µM; CC50 at 6 days ([7]; Table 6, alone, donor HuM4059, read-out: Cmpd (I) CC50): 83 µM; CC50 at 6 days ([7]; range over three donors (HuM4038, HuM4055A, HuM4059), 6 days, read-out: CC50 values, range): 16 to 82 µM |
| C=C1[C@H](CO)[C@@H](O)C[C@@H]1n1cnc2c(=O)[nH]c(N)nc21 [ETV, entecavir] | – | 0.67 ± 0.22^ns | – | – | 0.0014 ± 0.0004 µM | – | > 30 µM | > 30 µM | > 30 µM | > 30 µM | No reduction of cell viability | EC50 ([8]; Hepatitis B virus, HepG2.2.15, read-out: Median EC50): 0.07 nM |
| Nc1ccn([C@@H]2CS[C@H](CO)O2)c(=O)n1 [LMV, Lamivudine] | – | 1.0 ± 0.5^ns | – | >190 | 0.53 µM | >190 | > 30 µM | > 300 µM | > 300 µM | > 300 µM | No reduction of cell viability | – |
| CC(C)OC(=O)OCOP(=O)(CO[C@H](C)Cn1cnc2c(N)ncnc21)OCOC(=O)OC(C)C [TDF, tenofovir disoproxil fumarate] | 1.4 ± 0.05^ns | 2.2 ± 1.0^b | 2.8 ± 1.4^b | 1.1 ± 0.3^ns | 0.032 µM | 2.9 ± 1.5^b | – | – | – | – | – | EC50 ([1]; Hepatitis B virus, HepG2, read-out: mean EC50 against rtA181V variant): 0.043 µM; EC50 ([4]; Hepatitis B virus, HepG2, read-out: mean EC50 against rtL180M/M204V variant): 0.034 µM |
| C[C@H](Cn1cnc2c(N)ncnc21)OCP(=O)(O)O [TFV, tenofovir] | – | – | – | – | – | – | – | – | – | – | No reduction of cell viability | EC50 ([8]; single agents in HepG2.2.15 cells, read-out: Median EC50): 15 nM; CC50 ([9]; donor HuM4038, first HuM4038 column of Table 3, read-out: HuM4038 CC50): > 30 µM; CC50 ([9]; donor HuM4038, second HuM4038 column of Table 3, read-out: HuM4038 CC50): > 30 µM; CC50 ([9]; donor HuM4055A, read-out: HuM4055A CC50): > 30 µM; CC50 ([9]; donor HuM4059, read-out: HuM4059 CC50): > 30 µM |
